Source: patent US9248131B2, “Aquaporin modulators and methods of using them for the treatment of edema and fluid imbalance” (THE ARIZONA BOARD OF REGENTS ON BEHALF OF THE UNIVERSITY OF …, priority 2006, dated 2016)

Experiments:
AQP4 = target: T1, AQP4 (Homo sapiens, UniProt P55087); experiment: Oocyte swelling assay: water permeability (Pf) of AQP4-expressing oocytes by videomicroscopy, block or % stimulation; type: cell-based; conditions: for AQP-4 effect: comparison with bumetanide (in words): relative to bumetanide
T1 construct: expressed in transfected cells; host or cells: Xenopus oocytes
Excerpt: (§1) A method for screening compounds for their ability to modulate aquaporin activity based on a water permeability assay in Xenopus oocytes expressing aquaporins which is used to identify, assess, and characterize compounds that either block or stimulate the aquaporin channels including AQP1, AQP4 and AQP9 channels.
(§2) Selection rationale and methodology. The ability of compounds, analogs and/or agents to block an aquaporin channel was quantified by videomicroscopic analyses of cross-sectional area of AQP-expressing oocytes as a function of time in a defined osmotic gradient, allowing the calculation of the water permeability factor (Pf), statistical evaluation of significant differences in the rate of water entry, and definition of dose response curves with IC50 values (concentration required for half-maximal block).
(§3) This compound evaluation method has been utilized with AQP1,-4,-5, and -9 channels. Observations of channel stimulation were made using the same assay method, however, the results were reported as % stimulation over control at a given concentration. […] TEA is known as a blocker of K^+ channel subtypes and nicotinic acetylcholine receptors. TEA sensitivity of AQP1 was removed by site-directed mutagenesis of tyrosine 186 to phenylalanine (Y186F) in the outer vestibule of the water pore, and confirmed that the inhibitory action of TEA is not due to nonspecific effects on endogenous channels (Brooks et al., 2000).

AQP1 [1] = target: T2, AQP1 (Homo sapiens, UniProt P29972); conditions: AQP1 expressed in oocytes (Brooks et al., 2000); cited from earlier work
T2 sequence (P29972 1-269): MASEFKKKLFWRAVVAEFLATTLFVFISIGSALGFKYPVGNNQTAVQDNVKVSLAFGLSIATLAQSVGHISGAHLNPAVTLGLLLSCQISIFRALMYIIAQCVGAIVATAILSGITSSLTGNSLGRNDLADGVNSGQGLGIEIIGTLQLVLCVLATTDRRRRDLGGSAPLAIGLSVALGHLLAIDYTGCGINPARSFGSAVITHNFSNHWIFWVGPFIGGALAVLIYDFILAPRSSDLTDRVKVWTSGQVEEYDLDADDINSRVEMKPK

[2] = tested on: astrocytes expressing AQP4; conditions: cited from earlier work
AQP1 [3] = target: T2, AQP1; experiment: Oocyte swelling assay: water permeability (Pf) of AQP1-expressing oocytes, block or % stimulation; type: cell-based; design: expressed in transfected cells; host or cells: Xenopus oocytes; conditions: for AQP-1 effect (in words): given extracellularly
Excerpt: as §1, §2, §3

[4] = tested on: Na—K—Cl cotransporter (NKCC1); conditions: perfused kidney ascending loops of Henle; read-out: IC50 against Na—K—Cl cotransporter; cited from earlier work
AQP4-expressing oocytes = target: T3, AQP4-expressing oocytes (Homo sapiens, UniProt P55087); experiment: Simple screen: time to oocyte bursting in hypotonic saline; type: cell-based; conditions: AQP4-expressing oocytes; concentration not given
T3 construct: expressed in transfected cells; host or cells: Xenopus oocytes
Method: The composition of the library for initial AQP channel screening included various channel, transporter and receptor blocking compounds based on intuition and from clues regarding clinical side effects that involved water transporting tissues. In a simple screen (FIG. 1), control and AQP4-expressing oocytes were preincubated in isotonic saline (100 mM NaCl; 5 mM MgCl2; 5 mM HEPES, pH 7.3; ˜200 mOsm) containing the test compound for 10-15 min before each experiment; then the time to oocyte bursting (physical explosion) after transfer to 100 mOsm saline was monitored visually. […] Block was evident in the increased time required for bursting in hypotonic saline.

[5] = ↓ block, ↑ activation, ═ no effect, symbols not defined in the table
[6] = ↓ block, ↑ stimulation, ═ no effect, symbols not defined in the table

T1 sequence (P55087 whole entry, species assumed): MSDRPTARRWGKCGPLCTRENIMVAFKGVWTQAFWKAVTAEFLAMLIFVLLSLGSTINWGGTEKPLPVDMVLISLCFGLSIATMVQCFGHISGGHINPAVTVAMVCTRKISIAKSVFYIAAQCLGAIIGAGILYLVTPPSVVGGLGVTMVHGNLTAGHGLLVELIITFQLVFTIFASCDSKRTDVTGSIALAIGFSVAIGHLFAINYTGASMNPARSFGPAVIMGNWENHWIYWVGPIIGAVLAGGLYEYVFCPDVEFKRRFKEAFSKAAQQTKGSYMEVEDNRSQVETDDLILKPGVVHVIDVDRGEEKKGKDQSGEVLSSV
T3 sequence (P55087 whole entry, species assumed): as above

## CCCCNc1cc(C(=O)N2CCOCC2)cc(S(N)(=O)=O)c1Oc1ccccc1 [AQP-0006]
AQP4; 10 μM given extracellularly
  AQP-4 effect: % activation: 70%
AQP4; [5]
  AQP-4 effect (arrow symbol): ↑

## CC[N+](CC)(CC)CC [tetraethylammonium (TEA), tetraethylammonium]
AQP1 [1]
  water flux through AQP1 channels: blocks water flux

## [Pb] [lead]
[2]
  increase in water permeability (Pf): 40%

## CNS(=O)(=O)c1cc(C(=O)OC)c(NCc2ccco2)cc1Cl [drawing 115]
AQP4; arrow symbols, key not given
  AQP-4 effect (arrow symbol): ↑
AQP4; at 100 μM
  AQP-4 effect (in words): Significant Agonist Effect
AQP1 [3]; arrow symbols, key not given
  AQP-1 effect (arrow symbol): ↓↓

## CCCCNc1cc(C(=O)NCCN2CCS(=O)(=O)CC2)cc(S(N)(=O)=O)c1Oc1ccccc1 [AQP-0009]
AQP4; 10 μM given extracellularly
  AQP-4 effect: % activation: 60%
AQP4; [5]
  AQP-4 effect (arrow symbol): ↑

## CCCCNc1cc(C(=O)Nc2ccccn2)cc(S(N)(=O)=O)c1Oc1ccccc1
AQP4; at 10 μM
  AQP-4 effect (in words): No Significant effect at 10 μM

## CCCCNc1cc(C(=O)NCCN2CCN(C)CC2)cc(S(N)(=O)=O)c1Oc1ccccc1 [drawing 101]
AQP4; at 10 μM
  AQP-4 effect: % activation: 110% activation at 10

## CCCCNc1cc(C(=O)NCc2ccccn2)cc(S(N)(=O)=O)c1Oc1ccccc1
AQP4; at 10 μM
  AQP-4 effect (in words): No Significant effect at 10 μM

## CCCCNc1c(Oc2ccccc2)cc(S(=O)(=O)NC)cc1C(=O)OC
AQP4; at 10 μM extracellularly
  AQP-4 effect: % block: −40%
AQP4
  AQP-4 effect: comparison with bumetanide (in words): Improved potency over bumetanide

## CNS(=O)(=O)c1cc(C(=O)O)c(NCc2ccco2)cc1Cl
AQP4; arrow symbols, key not given
  AQP-4 effect (arrow symbol): (↑)?
AQP1 [3]; arrow symbols, key not given
  AQP-1 effect (arrow symbol): ↑

## CCCCNc1cc(C(=O)NCc2ccncc2)cc(S(N)(=O)=O)c1Oc1ccccc1
AQP4; at 10 μM
  AQP-4 effect (in words): No Significant effect at 10 μM

## CCCCNc1cc(C(=O)N2CCOCC2)cc(S(N)(=O)=O)c1Oc1ccccc1 [drawing 100]
AQP4; at 10 μM
  AQP-4 effect: % activation: 70% Activation at 10 μM

## C=CCNS(=O)(=O)c1cc(C(=O)OC)c(NCc2ccco2)cc1Cl [drawing 119]
AQP4; arrow symbols, key not given
  AQP-4 effect (arrow symbol): (↑)?
AQP4; at 100 μM
  AQP-4 effect (in words): No significant Antagonist Effect
AQP1 [3]; arrow symbols, key not given
  AQP-1 effect (arrow symbol): ═

## CCCCNc1cc(C(=O)NCCN2CCS(=O)(=O)CC2)cc(S(N)(=O)=O)c1Oc1ccccc1 [drawing 103]
AQP4; at 10 μM
  AQP-4 effect: % activation: 60% activation at 10 μM

## CCCCNc1cc(C(=O)NCCN2CCOCC2)cc(S(N)(=O)=O)c1Oc1ccccc1
AQP4; at 10 μM
  AQP-4 effect (in words): Some agonist trend at 10 μM

## Cc1cccc(Nc2ccncc2S(=O)(=O)NC(=O)NC(C)C)c1 [torsemide, reference compound]
[4]
  IC50: 300 nM
AQP4; concentrations up to 1 mM
  block of swelling in AQP4-expressing oocytes: no blocking effect

## C=CCNS(=O)(=O)c1cc(C(=O)OC)c(NCc2ccco2)cc1Cl [AQP-0027]
AQP4; 100 μM, route not stated
  AQP-4 effect: % block / antagonist trend: −25%
AQP4; [5]
  AQP-4 effect (arrow symbol): (↓)?
AQP1 [3]
  AQP-1 effect (in words): No significant effect
AQP1 [3]; [6]
  AQP-1 effect (arrow symbol): ═

## NS(=O)(=O)c1cc(C(=O)O)c(Cl)cc1NCc1ccco1
AQP4; at 100 μM
  AQP-4 effect (in words): Significant Agonist Effect at 100 μM

## CCCCNc1cc(C(=O)NCCN2CCN(CCN)CC2)cc(S(N)(=O)=O)c1Oc1ccccc1
AQP4; at 10 μM
  AQP-4 effect (in words): No Significant effect at 10 μM

## COC(=O)c1cc(S(=O)(=O)NCc2ccccc2)c(Cl)cc1NCc1ccco1
AQP4; arrow symbols, key not given
  AQP-4 effect (arrow symbol): ↑
AQP4; at 100 μM
  AQP-4 effect (in words): Significant Agonist Effect
AQP1 [3]; arrow symbols, key not given
  AQP-1 effect (arrow symbol): ═

## CCCCNc1c(Oc2ccccc2)cc(S(=O)(=O)NC)cc1C(=O)O
AQP4; at 100 μM
  AQP-4 effect: % block: −40%
AQP4
  AQP-4 effect: comparison with bumetanide (in words): Improved block

## COC(=O)c1cc(S(N)(=O)=O)c(Cl)cc1NCc1ccco1 [drawing 114]
AQP4; arrow symbols, key not given
  AQP-4 effect (arrow symbol): ═
AQP1 [3]; arrow symbols, key not given
  AQP-1 effect (arrow symbol): ↓↓

## CNS(=O)(=O)c1cc(C(=O)OC)c(NCc2ccco2)cc1Cl [AQP-0023, Furosemide methyl ester monomethyl sulfonamide]
AQP4; 100 μM given extracellularly
  AQP-4 effect: % agonist effect / agonist trend: −20%
AQP4; [5]
  AQP-4 effect (arrow symbol): ↑
AQP1 [3]; [6]
  AQP-1 effect (arrow symbol): ↓↓

## C=CCNS(=O)(=O)c1cc(C(=O)O)c(NCc2ccco2)cc1Cl
AQP4; arrow symbols, key not given
  AQP-4 effect (arrow symbol): ↑↑
AQP4; at 100 μM
  AQP-4 effect (in words): Significant Agonist Effect
AQP1 [3]; arrow symbols, key not given
  AQP-1 effect (arrow symbol): ═

## CCCCNc1cc(C(=O)OC)cc(S(N)(=O)=O)c1Oc1ccccc1 [AQP-0001, bumetanide methyl ester]
AQP4; 1 μM extracellularly
  AQP-4 effect: % block: −30%
AQP4; extracellularly
  AQP-4 effect: potency compared with bumetanide (in words): Improved potency over bumetanide
AQP4; [5]
  AQP-4 effect (arrow symbol): ↓↓

## NS(=O)(=O)c1cc(C(=O)O)c(NCc2ccco2)cc1Cl [furosemide, Furosemide, reference compound]
AQP4; 15 μM given intracellularly
  AQP-4 effect: % block: 75%
AQP4; 100 μM extracellularly
  AQP-4 effect (in words): Modest effect
AQP4; extracellular application
  block of swelling rate in AQP4-expressing oocytes: less effective then bumetanide
AQP4; internal injection into the oocyte (intracellular)
  block of swelling in AQP4-expressing oocytes: improved block at lower concentrations
AQP4; [5]
  AQP-4 effect (arrow symbol): ↓↓
AQP1 [3]; [6]
  AQP-1 effect (arrow symbol): ═

## NS(=O)(=O)c1cc2c(=O)ncn(Cc3ccco3)c2cc1Cl
AQP4; at 100 μM
  AQP-4 effect (in words): p > 0.05 No significant Antagonist Effect at 100 μM

## NS(=O)(=O)c1cc(C(=O)O)c(Cl)cc1NCc1ccccc1
AQP4; at 100 μM
  AQP-4 effect (in words): p > 0.05 No significant Antagonist Effect at 100 μM

## [Cl][Hg][Cl] [HgCl2]
AQP4-expressing oocytes
  time to oocyte bursting: no effect

## NS(=O)(=O)c1cc(C(=O)O)c(NCc2ccco2)cc1Cl [drawing 117]
AQP4; arrow symbols, key not given
  AQP-4 effect (arrow symbol): ? ↑
AQP1 [3]; arrow symbols, key not given
  AQP-1 effect (arrow symbol): ═

## CCCCNc1c(Oc2ccccc2)cc(S(N)(=O)=O)cc1C(=O)O [drawing 94]
AQP4; at 100 μM
  AQP-4 effect: % block: −35% block at 100 μM

## CCCCNc1c(Oc2ccccc2)cc(S(N)(=O)=O)cc1C(=O)OC
AQP4; at 1 μM extracellularly
  AQP-4 effect: % block: −30%
AQP4
  AQP-4 effect: comparison with bumetanide (in words): Improved potency over bumetanide

## CCCCNc1cc(C(=O)NCCCN2CCN(C)CC2)cc(S(N)(=O)=O)c1Oc1ccccc1
AQP4; at 10 μM
  AQP-4 effect (in words): No Significant effect at 10 μM

## COC(=O)c1cc(S(N)(=O)=O)c(Cl)cc1NCc1ccco1 [AQP-0022, Furosemide methyl ester]
AQP4; 100 μM extracellularly
  AQP-4 effect (in words): No significant effect
AQP4; [5]
  AQP-4 effect (arrow symbol): ═
AQP1 [3]; [6]
  AQP-1 effect (arrow symbol): ↓↓

## CCCCNc1c(Oc2ccccc2)cc(S(N)(=O)=O)cc1C(=O)O [Bumetanide AQP-0000]
AQP4; 100 μM, route not stated
  AQP-4 effect: % block / antagonist trend: −35%
AQP4; [5]
  AQP-4 effect (arrow symbol): ↓

## CCCCNc1cc(C(=O)Nc2ccncc2)cc(S(N)(=O)=O)c1Oc1ccccc1 [drawing 107]
AQP4; at 10 μM
  AQP-4 effect: % block: 80%
  toxicity observed in AQP-4 test: some toxicity observed

## NS(=O)(=O)c1cc(C(=O)O)c(NCc2ccco2)cc1NCc1ccco1 [AQP-0033]
AQP4; 100 μM, route not stated
  AQP-4 effect: % agonist effect: −25%
AQP4; [5]
  AQP-4 effect (arrow symbol): ↑
AQP1 [3]
  AQP-1 effect (in words): No significant effect
AQP1 [3]; [6]
  AQP-1 effect (arrow symbol): ═

## CCCCNc1cc(C(=O)NCc2cccnc2)cc(S(N)(=O)=O)c1Oc1ccccc1
AQP4; at 10 μM
  AQP-4 effect: % block: 50% block at 10 μM

## O=C(O)c1cc(S(=O)(=O)NCc2ccccc2)c(Cl)cc1NCc1ccco1
AQP4; arrow symbols, key not given
  AQP-4 effect (arrow symbol): ═
AQP1 [3]; arrow symbols, key not given
  AQP-1 effect (arrow symbol): ↓

## CCCCNc1cc(C(=O)N2CCN(C)CC2)cc(S(N)(=O)=O)c1Oc1ccccc1
AQP4; at 10 μM
  AQP-4 effect (in words): No Significant effect at 10 μM

## CCCCNc1cc(C(=O)NCCN2CCN(C)CC2)cc(S(N)(=O)=O)c1Oc1ccccc1 [AQP-0007]
AQP4; 10 μM given extracellularly
  AQP-4 effect: % activation: 110%
AQP4; [5]
  AQP-4 effect (arrow symbol): ↑↑

## CCCCNc1cc(C(=O)Nc2ccncc2)cc(S(N)(=O)=O)c1Oc1ccccc1 [AQP-0013]
AQP4; 10 μM extracellularly
  AQP-4 effect: % block: 80%
AQP4; [5]
  AQP-4 effect (arrow symbol): ↓↓
